Measurements reported in patent publication US20110065734A1, “NOVEL BIFUNCTIONAL COMPOUNDS WHICH INHIBIT PROTEIN KINASES AND HISTONE DEACETYLASES” (4SC AG, priority 2007, published 2011).
Where a name gives a salt, the structure may show the parent alone.

How the values were obtained:
A549 NSCLC cell line = test: Cellular cytotoxicity assay (Alamar Blue), A549; assay type: cell-based; conditions: Homo sapiens, A549; 72 h; only a range over the listed compounds is given; read-out: Cytotoxicity towards A549 NSCLC cell line IC50
Experimental: (§1) The anti-proliferative activity of the chimeric HDAC and protein kinase inhibitory chimeric compounds of the present invention was evaluated using HeLa cervical carcinoma, A549 NSCLC, SKOV3 ovarian carcinoma, Cal27 head and neck cancer, K562 chronic myeloid leukemia (CML) and EOL1 acute hypereosinophilic myeloid leukemia, cell lines. For quantification of cellular proliferation/living cells the Alamar Blue (Resazurin) cell viability assay was applied (O'Brien et al. Eur Biochem. 267, 5421-5426, 2000). In this assay Resazurin is reduced to the fluorescent resorufin by cellular dehydrogenase activity, correlating with viable, proliferating cells. The examples were dissolved as 20 mM solutions in dimethylsulfoxide (DMSO) and subsequently diluted in semi-logarithmic steps. Cell lines were seeded at respective density into 96 well flat bottom plates in a volume of 200 μl per well. 24 h after seeding 1 μl each of the compound dilutions were added into each well of the 96 well plate. Each compound dilution was tested as quadruplicates. Wells containing untreated control cells were filled with […] DMEM medium containing 0.5% v:v DMSO. The cells were then incubated with the substances for 72 h at 37° C. in a humidified atmosphere containing 5% carbon dioxide. To determine the viability of the cells, 20 μl of an Resazurin solution (Sigma; 90 mg/l) were added. After 4 h incubation at 37° C. the fluorescence was measured at an extinction of 544 nm and an emission of 590 nm. For the calculation of the cell viability the emission value from untreated cells was set as 100% viability and the emission rates of treated cells were set in relation to the values of untreated cells. Viabilities were expressed as % values. The corresponding IC50 values of the compounds for cytotoxic activity are determined from the concentration-effect curves by means of non-linear regression.

[1] = system: HeLa cervical carcinoma cell line; test: Cellular cytotoxicity assay (Alamar Blue), HeLa; assay type: cell-based; conditions: Homo sapiens, 72 h, only a range over the listed compounds is given, read-out: Cytotoxicity towards HeLa cervical cell line IC50
Experimental: as §1

[2] = system: SKOV3 ovarian carcinoma cell line; test: Cellular cytotoxicity assay (Alamar Blue), SKOV3; assay type: cell-based; conditions: Homo sapiens, SK-OV-3; 72 h; only a range over the listed compounds is given; read-out: Cytotoxicity towards SKOV3 cell line IC50
Experimental: as §1

[3] = target: T1, recombinant HDAC1 isolated from HEK293 cells with heterologous HDAC1 expression (Homo sapiens, UniProt Q13547); test: Fluorimetric rHDAC1 activity assay; assay type: biochemical; conditions: only a range of IC50 over the compounds given; read-out: rHDAC1 inhibitory activity IC50
T1 construct: made in house

[4] = system: histone H3 hyperacetylation in HeLa cervical carcinoma cells; test: Cellular histone H3 hyperacetylation assay; assay type: cell-based; conditions: Homo sapiens, 24 h, only a range over the listed compounds is given, read-out: Induction of histone H3 hyperacetylation in HeLa cervical carcinoma cells EC50
Text: To assess the cellular efficacy of a histone deacetylase inhibitor in vitro, an assay was set up in black clear-bottom 96-well plates and optimized for use on the Cellomics “ArrayScan II” platform for a quantitative calculation of histone acetylation. The protocol uses a polyclonal rabbit antibody, specifically binding to acetylated lysine 1-20 of human histone H3 on fixed cells with an Alexa Fluor 488 labeled goat anti rabbit-IgG used for counterstaining (Beckers et al. Int J. Cancer 121, 1138, 2007).
5×10^3 HeLa cervical carcinoma cells/well (ATCC. CCL-2) in 200 μl Dulbecco rs modified Eagle's medium (DMEM) containing 10% fetal calf serum are seeded at day 1 in Packard view plates and incubated for 24 h under standard cell culture conditions. On day 2, 1 μl test compound (200× final concentration) is added and incubation continued for further 24 h. On day 3, the culture medium is discarded and attached cells fixed for 15 min at room temperature by addition of 100 μl fixation buffer (3.7% v:v formaldehyde in phosphate buffered saline/PBS). After discarding the fixation buffer and one wash with blocking solution (1% BSA, 0.3% Tween 20 in PBS), cells are permeabilized at room temperature by addition of 100 μl/well permeabilization buffer (30.8 mM NaCl, 0.54 mM Na2HPO4, 0.31 mM KH2PO4, 0.1% v:v Triton X-100) for 15 min at room temperature. After discarding the permeabilization buffer and washing twice with 100 μl/well blocking solution at room temperature, the 1st antibody (anti-K^1-20 histone H3 antibody, Calbiochem No. 382158) in blocking solution (50 μl/well) is added. After incubation for 1 h at room temperature, the wells are washed twice at room temperature with 100 μl/well blocking solution before addition of the 2nd antibody (goat-anti-rabbit Alexa Fluor 488; MoBiTec No. A-11008) in blocking solution (50 μl/well). After further incubation for 1 h at room temperature, wells are washed twice with 100 μl/well blocking solution at room temperature. Finally, 100 μl/well PBS are added and image analysis performed on the Cellomics “ArrayScan II” platform. For EC50 determination, the percentage of positive cells showing nuclear fluorescence is determined and EC50 calculation done from concentration-effect curves by means of non-linear regression. For calibration, a positive (reference HDAC inhibitors like SAHA or NVP LBH-589) and a negative control were included.

T1 sequence (Q13547 whole entry): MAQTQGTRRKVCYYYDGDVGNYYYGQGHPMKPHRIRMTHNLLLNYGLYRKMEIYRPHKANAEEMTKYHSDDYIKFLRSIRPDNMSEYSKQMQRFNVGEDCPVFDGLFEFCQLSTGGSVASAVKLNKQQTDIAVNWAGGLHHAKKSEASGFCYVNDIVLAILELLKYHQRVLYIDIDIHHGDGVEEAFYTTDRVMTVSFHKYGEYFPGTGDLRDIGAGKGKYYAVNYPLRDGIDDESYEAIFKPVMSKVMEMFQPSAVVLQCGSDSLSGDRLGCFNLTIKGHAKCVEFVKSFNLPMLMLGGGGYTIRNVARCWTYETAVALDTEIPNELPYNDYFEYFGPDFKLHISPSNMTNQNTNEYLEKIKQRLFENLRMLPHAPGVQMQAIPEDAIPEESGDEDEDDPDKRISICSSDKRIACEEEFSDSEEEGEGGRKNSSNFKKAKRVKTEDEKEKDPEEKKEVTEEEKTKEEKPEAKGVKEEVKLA

C#Cc1cccc(Nc2ncnc3ccc(NC(=O)c4ccc(C(=O)Nc5ccccc5N)cc4)cc23)c1 [[37], N-(2-Amino-phenyl)-N′-[4-(3-ethynyl-phenylamino)-quinazolin-6-yl]-terephthalamide]
IC50 (A549 NSCLC cell line): ≥ 240 nM | IC50 [1]: ≥ 500 nM | IC50 [2]: ≥ 560 nM | melting point: 253 to 258 °C

Cc1ccc(NC(=O)c2ccc(C(=O)Nc3ccccc3N)cc2)cc1Nc1nc(-c2cccnc2)cs1 [[21], N^1-(2-aminophenyl)-N^4-(4-methyl-3-(4-(pyridin-3-yl)thiazol-2-ylamino)phenyl)terephthalamide]
melting point: 147.1 °C

C#Cc1cccc(Nc2ncnc3ccc(OCc4ccc(C(=O)Nc5ccccc5N)cc4)cc23)c1 [[44], N-(2-aminophenyl)-4-((4-(3-ethynylphenylamino)quinazolin-6-yloxy)methyl)benzamide]
IC50 [3]: ≥ 6.5 nM

Cc1ccc(NC(=O)c2ccc(C(=O)Nc3ccccc3N)s2)cc1Nc1nc(-c2cccnc2)cs1 [[27], N^2-(2-aminophenyl)-N^5-(4-methyl-3-(4-(pyridin-3-yl)thiazol-2-ylamino)phenyl)thiophene-2,5-dicarboxamide]
melting point: 242.4 °C

Nc1ccccc1NC(=O)c1ccc(C(=O)Nc2cccc(Nc3nccc(-c4cccnc4)n3)c2)cc1 [[31], N-(2-Amino-phenyl)-N′-[3-(4-pyridin-3-yl-pyrimidin-2-ylamino)-phenyl]-terephthalamide]
IC50 (A549 NSCLC cell line): ≥ 2950 nM

C#Cc1cccc(Nc2ncnc3cc(NC(=O)c4ccc(C(=O)Nc5ccccc5N)cc4)ccc23)c1 [[41], N-(2-Amino-phenyl)-N′-[4-(3-ethynyl-phenylamino)-quinazolin-7-yl]-terephthalamide]
IC50 [2]: ≥ 560 nM

Nc1ccccc1NC(=O)CCc1ccc(-c2ccc3ncnc(Nc4ccc(OCc5cccc(F)c5)c(Cl)c4)c3c2)cc1 [[12], N-(2-aminophenyl)-3-(4-(4-(3-chloro-4-(3-fluorobenzyloxy)phenylamino)quinazolin-6-yl)phenyl)propanamide]
IC50 [3]: ≥ 35.3 nM | IC50 (A549 NSCLC cell line): ≥ 1100 nM

Nc1ccccc1NC(=O)/C=C/c1ccc(-c2ccc3ncnc(Nc4ccc(OCc5cccc(F)c5)c(Cl)c4)c3c2)o1 [[13], (E)-N-(2-aminophenyl)-3-(5-(4-(3-chloro-4-(3-fluorobenzyloxy)phenylamino)quinazolin-6-yl)furan-2-yl)acrylamide]
IC50 [3]: ≥ 35.3 nM | IC50 (A549 NSCLC cell line): ≥ 1100 nM

Nc1ccccc1NC(=O)/C=C/c1ccc(-c2ccc3ncnc(Nc4ccc(OCc5cccc(F)c5)c(Cl)c4)c3c2)cc1 [[10], (E)-N-(2-aminophenyl)-3-(4-(4-(3-chloro-4-(3-fluorobenzyloxy)phenylamino)quinazolin-6-yl)phenyl)acrylamide]
IC50 [3]: ≥ 35.3 nM | IC50 (A549 NSCLC cell line): ≥ 1100 nM

O=C(/C=C/c1ccc(C(=O)Nc2cccc(Nc3nc(-c4cccnc4)cs3)c2)s1)NO [[34], (E)-5-(3-(hydroxyamino)-3-oxaprop-1-enyl)-N-(3-(4-(pyridin-3-yl)thiazol-2-ylamino)phenyl)thiophene-2-carboxamide]
IC50 (A549 NSCLC cell line): ≥ 2950 nM | melting point: 205.6 °C

Nc1ccccc1NC(=O)c1ccc(C(=O)Nc2cccc(Nc3nc(-c4cccnc4)cs3)c2)cc1 (hydrate or solvate) [[18], N^1-(2-aminophenyl)-N^4-(3-(4-(pyridin-3-yl)thiazol-2-ylamino)phenyl)terephthalamide hydrate]
melting point: 224.8 to 224.9 °C

Nc1ccccc1NC(=O)c1ccc(COc2ccc3ncnc(Nc4cccc(Br)c4)c3c2)cc1 [[43], N-(2-aminophenyl)-4-((4-(3-bromophenylamino)quinazolin-6-yloxy)-methyl)benzamide]
melting point: 215 to 218 °C

Nc1ccccc1NC(=O)c1ccc(C(=O)Nc2ccc(Cl)c(Nc3nccc(-c4cccnc4)n3)c2)cc1 [[32], N-(2-Amino-phenyl)-N′-[4-chloro-3-(4-pyridin-3-yl-pyrimidin-2-ylamino)-phenyl]-terephthalamide compound with hydrochloric acid]
IC50 (A549 NSCLC cell line): ≥ 2950 nM

O=C(NO)c1ccc(C(=O)Nc2cccc(Nc3nc(-c4cccnc4)cs3)c2)cc1 [[17], N^1-hydroxy-N^4-(3-(4-(pyridin-3-yl)thiazol-2-ylamino)phenyl)terephthalamide]
IC50 (A549 NSCLC cell line): ≥ 2950 nM | melting point: 205.5 °C

O=C(/C=C/c1ccc(C(=O)Nc2cccc(Nc3nc(-c4cccnc4)cs3)c2)cc1)NO [[22], (E)-4-(3-(hydroxyamino)-3-oxoprop-1-enyl)-N-(3-(4-(pyridin-3-yl)thiazol-2-ylamino)phenyl)benzamide]
IC50 [3]: 77 to 1400 nM | melting point: 100.6 °C

Cc1ccc(NC(=O)c2ccc(C(=O)Nc3ccccc3N)nc2)cc1Nc1nccc(-c2cccnc2)n1 [[23], N^2-(2-aminophenyl)-N^5-(4-methyl-3-(4-(pyridin-3-yl)pyrimidin-2-ylamino)phenyl)pyridine-2,5-dicarboxamide]
melting point: 150.5 to 152.5 °C

Cc1ccc(NCc2ccc(/C=C/C(=O)NO)cc2)cc1Nc1nccc(-c2cccnc2)n1 [[16], (E)-N-Hydroxy-3-(4-{[4-methyl-3-(4-pyridin-3-yl-pyrimidin-2-ylamino)-phenylamino]methyl}-phenyl)-acrylamide]
IC50 [3]: 77 to 1400 nM | EC50 [4]: 1700 to 10000 nM | IC50 (A549 NSCLC cell line): ≥ 2950 nM | IC50 [1]: ≥ 1150 nM | melting point: 201 to 205 °C

Nc1ccccc1NC(=O)c1ccc(-c2ccc3ncnc(Nc4ccc(OCc5cccc(F)c5)c(Cl)c4)c3c2)o1 [[5], 5-{4-[3-Chloro-4-(3-fluorobenzyloxy)phenylamino]-quinazolin-6-yl}furan-2-carboxylic acid (2-amino-phenyl)amide]
EC50 [4]: ≥ 3650 nM | IC50 (A549 NSCLC cell line): ≥ 1100 nM | IC50 [2]: ≥ 1000 nM | melting point: 250 °C (dec.)

Nc1ccccc1NC(=O)c1ccc(C(=O)Nc2cccc(Nc3nc(-c4cccnc4)cs3)c2)s1 (as salt: salt) [[28], N^2-(2-aminophenyl)-N^5-(3-(4-(pyridin-3-yl)thiazol-2-ylamino)phenyl)thiophene-2,5-dicarboxamide]
melting point: 222.3 °C

C#Cc1cccc(Nc2ncnc3ccc(NC(=O)c4ccc(C(=O)Nc5ccccc5N)s4)cc23)c1 [[38], Thiophene-2,5-dicarboxylic acid 2-[(2-amino-phenyl)-amide]-5-{[4-(3-ethynyl-phenylamino)-quinazolin-6-yl]-amide}]
IC50 (A549 NSCLC cell line): ≥ 240 nM | IC50 [1]: ≥ 500 nM | IC50 [2]: ≥ 560 nM

C#Cc1cccc(Nc2ncnc3cc(NC(=O)c4cccc(/C=C/C(=O)Nc5ccccc5N)c4)ccc23)c1 [[42], (E)-3-(3-(2-aminophenylamino)-3-oxoprop-1-enyl)-N-(4-(3-ethynylphenylamino)quinazolin-7-yl)benzamide]
IC50 [3]: ≥ 6.5 nM | melting point: 190 to 194.2 °C
